Laboratory results: patent US20230293535A1, “ERBB/BTK INHIBITORS” (Dizal (Jiangsu) Pharmaceutical Co., Ltd., priority 2018, published 2023)
Where two headings read alike, the source gives them in different places.

Key:
Ba/F3 EGFR NPH ins cells = test: Cell proliferation, Ba/F3 EGFR NPH ins (CellTiter-Glo, 72 h); assay type: cell-based; details: Ba/F3 EGFR, 72 h, Ba/F3 EGFR NPH ins, 72 h proliferation; read-out: EGFR Exon20 NPH insertion GI50;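 further: IL3-independent cells carrying constitutively phosphorylated EGFR, compound dilution series, viable cells quantified by ATP luminescence, growth relative to DMSO wells after subtracting pre-dosing (day 0) baseline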
TMD-8 cells = test: BTK (wt) cell proliferation, TMD-8 (CellTiter-Glo, 72 h); assay type: cell-based; details: TMD-8 cells, 72 h, CellTiter-Glo, read-out: BTK WT TMD-8 GI50;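 further: viable cells quantified by ATP-based luminescence, proliferation expressed as percent of DMSO control after subtracting a time-zero baseline plate read at dosing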
Ba/F3 EGFR ASV ins cells = test: Cell proliferation, Ba/F3 EGFR ASV ins (CellTiter-Glo, 72 h); assay type: cell-based; details: Ba/F3 EGFR, 72 h, Ba/F3 EGFR ASV ins, 72 h proliferation; read-out: EGFR Exon20 ASV insertion GI50;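 further: IL3-independent Ba/F3 cells transduced with EGFR V769_D770insASV, cellular ATP luminescence after compound exposure, growth relative to DMSO control with the day-0 baseline reading subtracted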
DB cells = test: BTK (wt) cell proliferation, DB (CellTiter-Glo, 72 h); assay type: cell-based; details: Homo sapiens, DB, DB cells, CellTiter-Glo, read-out: Non-BCR activated DB GI50;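 further: DB cells in 384-well plates given a dilution series of compound, viable cells read by ATP luminescence, growth expressed versus DMSO control after subtracting a time-zero plate reading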
[1] = target: T1, human Her2 exon 20 insertion mutation YVMA (Homo sapiens, UniProt P04626, INS775YVMA); test: Her2 Exon 20 YVMA insertion cellular phosphorylation inhibition (MSD p-Her2 Y1248/total Her2); assay type: cell-based; details: Her2 YVMAins cells, 4 h compound;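 further: lentivirally transduced NIH-3T3 cells in 1% FBS medium, electrochemiluminescent MSD read-out, graded compound concentrations at 37 °C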
T1 construct: expressed in transfected cells; host or cells: NIH-3T3, lentiviral transduction, puromycin selection
T1 sequence (P04626 with tags, fused parts or gaps INS775YVMA): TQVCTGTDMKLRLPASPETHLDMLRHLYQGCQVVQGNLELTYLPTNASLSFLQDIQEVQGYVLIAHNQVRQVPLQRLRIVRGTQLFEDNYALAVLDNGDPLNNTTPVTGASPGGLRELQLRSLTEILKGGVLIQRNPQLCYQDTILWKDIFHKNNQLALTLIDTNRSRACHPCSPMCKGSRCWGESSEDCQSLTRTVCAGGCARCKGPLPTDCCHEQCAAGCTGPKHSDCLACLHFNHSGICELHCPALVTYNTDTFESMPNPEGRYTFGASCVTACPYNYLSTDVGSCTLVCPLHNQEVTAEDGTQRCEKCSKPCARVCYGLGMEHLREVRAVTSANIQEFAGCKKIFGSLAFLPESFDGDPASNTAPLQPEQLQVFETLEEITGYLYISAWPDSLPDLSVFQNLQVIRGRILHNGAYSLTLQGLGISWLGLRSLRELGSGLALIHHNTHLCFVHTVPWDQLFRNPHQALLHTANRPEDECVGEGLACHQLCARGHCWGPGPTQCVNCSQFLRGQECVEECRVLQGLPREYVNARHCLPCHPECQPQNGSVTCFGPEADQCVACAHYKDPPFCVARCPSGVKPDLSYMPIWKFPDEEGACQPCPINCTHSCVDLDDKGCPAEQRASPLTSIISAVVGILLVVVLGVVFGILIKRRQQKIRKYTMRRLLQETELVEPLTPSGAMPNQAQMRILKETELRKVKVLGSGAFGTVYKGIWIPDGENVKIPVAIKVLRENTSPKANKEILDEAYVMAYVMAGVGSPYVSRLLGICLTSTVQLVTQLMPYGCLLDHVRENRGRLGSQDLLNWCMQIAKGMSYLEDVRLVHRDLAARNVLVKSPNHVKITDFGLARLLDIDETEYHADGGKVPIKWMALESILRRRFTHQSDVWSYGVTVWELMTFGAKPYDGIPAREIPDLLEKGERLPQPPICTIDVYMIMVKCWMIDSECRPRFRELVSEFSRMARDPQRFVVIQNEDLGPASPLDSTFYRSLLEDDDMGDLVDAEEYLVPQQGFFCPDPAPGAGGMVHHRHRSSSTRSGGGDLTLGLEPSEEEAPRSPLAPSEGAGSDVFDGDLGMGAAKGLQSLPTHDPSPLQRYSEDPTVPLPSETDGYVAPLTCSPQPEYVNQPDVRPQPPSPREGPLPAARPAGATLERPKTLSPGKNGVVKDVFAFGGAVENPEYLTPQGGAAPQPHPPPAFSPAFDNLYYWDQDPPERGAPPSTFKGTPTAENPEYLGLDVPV

[2] = In vitro human hepatocytes clearance assay; details: both, human, cryopreserved human hepatocytes (suspension), human hepatocytes Clint (µL/min/10^6cells), mixed gender human hepatocytes, incubation up to 100 min
[3] = system: Her2 exon 20 insertion YVMA transduced NIH-3T3 cell line; test: Cell proliferation, Her2 YVMAins NIH-3T3 (CellTiter-Glo, 72 h); assay type: cell-based; details: Mus musculus, NIH3T3, 72 h, Her2 YVMAins cells, 72 h proliferation; read-out: Her2 Exon 20 YVMA insertion GI50;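 further: viable cells quantified by ATP luminescence, growth over a day-zero baseline plate expressed as percent of DMSO control growth, compound dilution series in 10% FBS medium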
Procedure: WT or mutant cells were seeded in 384 well plates at appropriate concentrations with corresponding growth media supplemented with 10% FBS, for each experiment, identical plates were prepared in duplicates, and the plates were incubated overnight. On the next day, one of each duplicated plates was dosed with tested compounds at a series of concentrations, and another one of the duplicated plate was analysied for G0 value. The dosed plates were incubate for another 72 h at 37° C. with 5% CO2 and the number of viable cells in each well of the G0 plates or the dosed plates were measured by CellTiter-Glo® Luminescent Cell Viability Assay (Promega). This assay is a luminescent method for determining the number viable cells through measurement of cellular ATP concentration by detection of luciferase activity. Detection reagents (15 µl) was dispensed into per well, and the plates were incubate for 30 min at room temperature. Then, the luminescence in each well was measured using the Envision plate reader (PerkinElmer). The percentage of proliferation was calculated based on the formula: %Proliferation= 100 × (G3 value of sample well-Go value)/(G3 value of DMSO control-Go value).

[4] = target: T2, human EGFR exon 20 V769_D770insASV (Homo sapiens, UniProt P00533, INS769ASV); test: EGFR Exon20 ASV insertion cellular phosphorylation inhibition (MSD pEGFR Y1068/total EGFR); assay type: cell-based; details: Ba/F3 EGFR ASV ins cells, 4 h compound, p-EGFR(Y1068)/total EGFR;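 further: electrochemiluminescent readout on an MSD SECTOR Imager, IL3-independent transduced cells in medium with 1% FBS, compound concentration series at 37 °C and 5% CO2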
T2 construct: expressed in transfected cells; host or cells: Ba/F3 (DSMZ ACC-300), lentiviral transduction, puromycin selection, IL3 depletion

Ri-1 cells = test: BTK (wt) cell proliferation, Ri-1 (CellTiter-Glo, 72 h); assay type: cell-based; details: Ri-1 cells, 72 h, CellTiter-Glo, read-out: BTK WT Ri-1 GI50;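 further: viable cells quantified as cellular ATP luminescence, proliferation normalized to a time-zero plate and the DMSO control, compounds tested across a dilution series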
Procedure: (§1) OCI-LY-10 at 3,750 cells/well, TMD-8 and Ri-1 at 2,000 cells/well, and DB at 1,250 cells/well, respectively, were sorted into 384-well plates in RPMI1640 medium with 10% FBS. After overnight incubation, all cells were incubated with compound at a series of concentrations. Meanwhile, a duplicated plate of each cell line was prepared for measuring G0 value. The dosed plates were further incubated for 72 hours and the number of viable cells was measured by CellTiter-Glo® Luminescent Cell Viability Assay (Promega), a luminescent method for determining the number of viable cells through measurement of cellular ATP concentration using Envision plate reader (PerkinElmer). The percentage of proliferation was calculated as: % Proliferation = 100 × (G3 value of sample well - G0 value)/(G3 value of DMSO control - G0 value).

OCI-LY-10 cells = test: BTK (wt) cell proliferation, OCI-LY-10 (CellTiter-Glo, 72 h); assay type: cell-based; details: OCI-LY-10 cells, 72 h, CellTiter-Glo, read-out: BTK WT OCI-LY-10 GI50;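 further: viable cells quantified via cellular ATP luminescence, proliferation given as percent of DMSO control after subtracting a duplicate plate read at time of dosing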
Procedure: as §1

WT EGFR cell line A-431 = test: Cell proliferation, WT EGFR A431 (CellTiter-Glo, 72 h); assay type: cell-based; details: Homo sapiens, A-431, 72 h, A431, 72 h proliferation; read-out: EGFR WT A431 GI50;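 further: proliferation from a luminescent ATP viability signal, expressed as 100 × (treated minus time-zero plate) over (DMSO control minus time-zero plate), cells grown with 10% FBS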
[5] = system: NCI-H1975 EGFR L858R/T790M cells; test: Cell proliferation, NCI-H1975 EGFR L858R/T790M (CellTiter-Glo, 72 h); assay type: cell-based; details: Homo sapiens, NCI-H1975, 72 h, NCI-H1975, 72 h proliferation; read-out: EGFR L858R and T790M mutation GI50;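 further: viable cells quantified by luciferase-based ATP luminescence, proliferation expressed relative to DMSO-treated wells (100%) after subtracting a parallel plate read at the time of dosing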
[6] = target: T3, human EGFR exon 20 H773_V774insNPH (Homo sapiens, UniProt P00533, INS773NPH); test: EGFR Exon20 NPH insertion cellular phosphorylation inhibition (MSD pEGFR Y1068/total EGFR); assay type: cell-based; details: Ba/F3 EGFR NPH ins cells, 4 h compound, p-EGFR(Y1068)/total EGFR;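 further: IL3-independent Ba/F3 cells with constitutively phosphorylated EGFR, compound exposure at 37 °C under 5% CO2, electrochemiluminescent MSD measurement of the p-EGFR to total EGFR ratio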
T3 construct: host or cells: Ba/F3
T3 sequence (P00533 with tags, fused parts or gaps INS773NPH): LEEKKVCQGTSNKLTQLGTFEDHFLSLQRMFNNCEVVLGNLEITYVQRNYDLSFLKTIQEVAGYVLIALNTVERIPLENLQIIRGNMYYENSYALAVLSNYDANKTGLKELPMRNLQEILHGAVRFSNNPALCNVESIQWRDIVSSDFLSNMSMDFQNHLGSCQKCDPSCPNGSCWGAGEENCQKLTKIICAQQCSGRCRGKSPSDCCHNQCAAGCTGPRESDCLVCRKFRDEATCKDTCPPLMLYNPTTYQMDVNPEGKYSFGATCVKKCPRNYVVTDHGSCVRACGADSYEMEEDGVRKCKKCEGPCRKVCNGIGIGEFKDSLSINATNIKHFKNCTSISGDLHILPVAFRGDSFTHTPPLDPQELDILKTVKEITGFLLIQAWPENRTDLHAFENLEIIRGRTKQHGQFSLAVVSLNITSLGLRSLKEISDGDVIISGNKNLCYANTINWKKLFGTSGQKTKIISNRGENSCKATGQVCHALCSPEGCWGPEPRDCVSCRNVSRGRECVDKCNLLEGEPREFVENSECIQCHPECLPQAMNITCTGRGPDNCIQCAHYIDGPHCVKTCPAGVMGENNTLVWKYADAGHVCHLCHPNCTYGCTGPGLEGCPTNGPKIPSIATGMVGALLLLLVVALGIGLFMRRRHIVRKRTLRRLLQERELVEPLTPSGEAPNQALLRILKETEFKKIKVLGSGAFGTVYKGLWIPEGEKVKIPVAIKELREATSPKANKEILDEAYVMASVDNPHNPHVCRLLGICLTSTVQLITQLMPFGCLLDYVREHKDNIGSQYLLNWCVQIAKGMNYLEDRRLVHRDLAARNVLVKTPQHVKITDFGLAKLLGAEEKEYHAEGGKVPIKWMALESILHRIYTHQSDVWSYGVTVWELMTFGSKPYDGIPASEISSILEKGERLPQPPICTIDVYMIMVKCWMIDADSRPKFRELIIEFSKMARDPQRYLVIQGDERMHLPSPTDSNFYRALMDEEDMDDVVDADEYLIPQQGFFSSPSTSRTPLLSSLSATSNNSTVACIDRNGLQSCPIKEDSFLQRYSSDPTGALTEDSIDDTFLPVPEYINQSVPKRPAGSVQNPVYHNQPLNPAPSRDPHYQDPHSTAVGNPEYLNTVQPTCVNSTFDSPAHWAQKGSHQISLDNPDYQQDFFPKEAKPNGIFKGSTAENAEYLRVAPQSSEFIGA

[7] = In vitro rat hepatocytes clearance assay; details: male, rat, cryopreserved rat hepatocytes (suspension), rat hepatocytes Clint (µL/min/10^6cells), 1 µM-range incubation up to 100 min
EGFR L858R&T790M = target: T4, EGFR L858R&T790M (Homo sapiens, UniProt P00533, L858R/T790M); test: EGFR L858R and T790M cellular phosphorylation inhibition in NCI-H1975 (MSD); assay type: cell-based; details: NCI-H1975 cells, 4 h compound, p-EGFR(Y1068)/total EGFR; read-out: EGFR L858R and T790M mutation IC50;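 further: phosphorylated and total EGFR detected by electrochemiluminescence, cells exposed to compound in medium containing 1% FBS at 37 °C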
T4 construct: host or cells: NCI-H1975
T4 sequence (P00533 25-1210 T790M/L858R): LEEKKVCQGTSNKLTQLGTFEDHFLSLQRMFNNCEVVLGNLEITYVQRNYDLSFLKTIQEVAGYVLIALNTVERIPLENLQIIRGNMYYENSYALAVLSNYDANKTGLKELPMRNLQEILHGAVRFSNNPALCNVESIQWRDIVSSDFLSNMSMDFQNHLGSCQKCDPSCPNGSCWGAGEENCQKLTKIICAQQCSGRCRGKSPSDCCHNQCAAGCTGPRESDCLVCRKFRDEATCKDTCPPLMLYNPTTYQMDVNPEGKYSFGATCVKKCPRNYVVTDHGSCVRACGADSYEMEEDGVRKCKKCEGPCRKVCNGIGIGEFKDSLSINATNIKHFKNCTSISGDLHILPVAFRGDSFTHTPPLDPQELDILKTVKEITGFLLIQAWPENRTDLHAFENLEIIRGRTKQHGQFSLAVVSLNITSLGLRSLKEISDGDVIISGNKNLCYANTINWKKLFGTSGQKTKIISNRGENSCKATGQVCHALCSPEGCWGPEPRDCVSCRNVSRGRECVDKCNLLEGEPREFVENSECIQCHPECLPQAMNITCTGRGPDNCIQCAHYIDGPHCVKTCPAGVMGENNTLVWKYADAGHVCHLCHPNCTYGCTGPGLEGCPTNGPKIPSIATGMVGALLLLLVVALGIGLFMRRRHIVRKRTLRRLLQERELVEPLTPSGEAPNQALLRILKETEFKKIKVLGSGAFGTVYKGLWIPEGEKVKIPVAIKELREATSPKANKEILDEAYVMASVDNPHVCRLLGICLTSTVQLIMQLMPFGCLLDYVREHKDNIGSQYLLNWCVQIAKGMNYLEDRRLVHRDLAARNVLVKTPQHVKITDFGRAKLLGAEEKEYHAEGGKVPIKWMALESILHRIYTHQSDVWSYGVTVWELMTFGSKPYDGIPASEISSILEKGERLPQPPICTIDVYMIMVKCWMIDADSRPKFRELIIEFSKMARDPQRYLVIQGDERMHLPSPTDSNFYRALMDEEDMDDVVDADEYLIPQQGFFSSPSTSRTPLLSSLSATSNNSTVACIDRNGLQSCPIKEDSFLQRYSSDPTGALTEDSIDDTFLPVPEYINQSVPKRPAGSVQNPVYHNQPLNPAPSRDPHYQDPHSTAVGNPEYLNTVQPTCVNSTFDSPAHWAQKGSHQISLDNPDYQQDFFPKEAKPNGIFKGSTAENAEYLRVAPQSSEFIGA

WT EGFR = target: T5, WT EGFR (Homo sapiens, UniProt P00533); test: WT EGFR cellular phosphorylation inhibition in A-431 (hEGF stimulated, MSD); assay type: cell-based; details: A431 cells, 4 h compound, then 100 ng/ml hEGF 10 min;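 further: electrochemiluminescence read-out of EGFR Tyr1068 phosphorylation expressed as ratio to total EGFR, cells kept in medium with 1% FBS, compounds tested as a concentration series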
T5 construct: host or cells: A-431
T5 sequence (P00533 25-1210): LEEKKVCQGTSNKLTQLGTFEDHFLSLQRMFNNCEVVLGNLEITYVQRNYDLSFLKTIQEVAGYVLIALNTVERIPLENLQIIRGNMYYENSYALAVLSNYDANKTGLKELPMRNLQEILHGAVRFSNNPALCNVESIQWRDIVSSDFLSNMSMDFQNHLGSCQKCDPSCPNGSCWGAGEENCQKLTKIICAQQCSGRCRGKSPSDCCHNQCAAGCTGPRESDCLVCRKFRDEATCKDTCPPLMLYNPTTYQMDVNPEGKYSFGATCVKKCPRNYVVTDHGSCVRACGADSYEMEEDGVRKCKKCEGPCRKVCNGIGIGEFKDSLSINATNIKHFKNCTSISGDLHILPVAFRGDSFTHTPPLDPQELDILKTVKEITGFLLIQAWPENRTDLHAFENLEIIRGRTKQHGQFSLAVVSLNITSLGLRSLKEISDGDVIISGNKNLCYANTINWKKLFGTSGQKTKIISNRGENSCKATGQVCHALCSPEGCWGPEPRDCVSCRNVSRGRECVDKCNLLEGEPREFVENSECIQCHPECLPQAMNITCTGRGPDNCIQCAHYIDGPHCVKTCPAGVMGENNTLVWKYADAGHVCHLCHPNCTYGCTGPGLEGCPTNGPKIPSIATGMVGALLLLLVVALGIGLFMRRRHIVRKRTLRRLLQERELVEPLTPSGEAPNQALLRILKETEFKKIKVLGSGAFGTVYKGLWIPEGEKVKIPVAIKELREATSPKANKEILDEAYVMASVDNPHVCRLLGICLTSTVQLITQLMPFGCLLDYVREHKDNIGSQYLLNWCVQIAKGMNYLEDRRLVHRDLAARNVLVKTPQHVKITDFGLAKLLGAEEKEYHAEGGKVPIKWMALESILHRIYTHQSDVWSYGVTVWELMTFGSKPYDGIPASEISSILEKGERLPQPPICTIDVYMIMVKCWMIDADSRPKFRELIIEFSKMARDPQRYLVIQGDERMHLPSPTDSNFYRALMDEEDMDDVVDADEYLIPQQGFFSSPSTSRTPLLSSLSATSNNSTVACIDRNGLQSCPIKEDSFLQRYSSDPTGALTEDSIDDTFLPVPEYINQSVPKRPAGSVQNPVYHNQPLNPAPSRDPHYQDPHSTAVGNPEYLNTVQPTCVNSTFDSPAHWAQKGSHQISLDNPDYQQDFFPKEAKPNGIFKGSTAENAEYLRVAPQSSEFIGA
Procedure: One day before the test, WT or mutant cells were seeded in 96 well plates at appropriate concentrations with corresponding growth media supplemented with 1% FBS, and incubated overnight. The next day, tested compounds at a series of concentrations were added into each individual well of the plates, and the plates were incubated for 4 h at 37° C. with 5% CO2.
The EGFR (Y1068) phosphorylation level (activity) of cells in each well were then measured with MSD kit named “MULTI-SPOT®96 4-Spot HB Prototype EGFR Triplex [sequence]: pEGFR(Tyr1068),pEGFR(Tyr1173), Total EGFR” according to the manufacturer’s instruction (MESO SCALE DISCOVERY, Cat# N45ZB-1). The assay is an electrochemiluminescent method for determining both phosphorylated and total EGFR of cells with an MSD SECTOR® Imager and the ratio of p-EGFR/total EGFR can be generated by the machine. The Her2 (Y1248) phosphorylation level (activity) of cells in each well were measured with MSD Kit named “Phospho-ErbB2 (Tyr1248) Assay Whole Cell Lysate Kit” according to the manufacturer’s instruction (MESO SCALE DISCOVERY, Cat# K151CLD-3). The assay is an electrochemiluminescent method (MESO SCALE DISCOVERY) for determining both phosphorylated and total Her2 of cells with an MSD SECTOR® Imager and then the ratio of p-Her2/total Her2 can be generated by the machine.

C=CC(=O)Nc1cc(Nc2ncnc(Nc3cc(Cl)c(Cl)cc3C(C)(C)O)n2)c(OC)cc1N1CC[C@@H](N(C)C)C1 [Compound 61, (R)-N-(5-(4-(4,5-dichloro-2-(2-hydroxypropan-2-yl)phenylamino)-1,3,5-triazin-2-ylamino)-2-(3-(dimethylamino)pyrrolidin-1-yl)-4-methoxyphenyl)acry lamide]
GI50 (Ba/F3 EGFR NPH ins cells): 18.8 nM | GI50 (TMD-8 cells; Homo sapiens, TMD8, 72 h): 1.03 nM | GI50 (Ba/F3 EGFR ASV ins cells): 25.6 nM | GI50 (DB cells): 1510 nM | IC50 [1]: 9 nM | hepatocyte CLint at 1 µM [2]: 2.71 µL/min/1e6 cells | GI50 [3]: 87.8 nM | IC50 [4]: 12.3 nM | GI50 (Ri-1 cells; Ri-1, 72 h): 5.62 nM | GI50 (OCI-LY-10 cells; Homo sapiens, OCI-Ly10, 72 h): 2.72 nM | GI50 (WT EGFR cell line A-431): 12.4 nM | GI50 [5]: 2.1 nM | IC50 [6]: 14.2 nM | hepatocyte CLint at 1 µM [7]: 7.9 µL/min/1e6 cells | IC50 (EGFR L858R&T790M): 0.4 nM | IC50 (WT EGFR): 18 nM

C=CC(=O)Nc1cc(Nc2nccc(Nc3cc(Cl)c(F)cc3C(C)(O)CC)n2)c(OC)cc1N1CC[C@@H](N(C)C)C1 (single isomer, unassigned) [Compound 76, N-(5-(4-(5-chloro-4-fluoro-2-((R)-2-hydroxybutan-2-yl)phenylamino)pyrimidin-2-ylamino)-2-((R)-3-(dimethylamino)pyrrolidin-1-yl)-4-methoxyphenyl) acrylamide or N-(5-(4-(5-chloro-4-fluoro-2-((S)-2-hydroxybutan-2-yl)phenylamino)pyrimidin-2-ylamino)-2-((R)-3-(dimethylamino)pyrrolidin-l-yl)-4-methoxyphenyl) acrylamide]
GI50 (Ba/F3 EGFR NPH ins cells): 85.9 nM | GI50 (TMD-8 cells): 8.44 nM | GI50 (Ba/F3 EGFR ASV ins cells): 113 nM | GI50 (DB cells): 1070 nM | IC50 [1]: 11.6 nM | hepatocyte CLint at 1 µM [2]: 4.01 µL/min/1e6 cells | GI50 [3]: 97.7 nM | IC50 [4]: 103 nM | GI50 (Ri-1 cells): 5.93 nM | GI50 (OCI-LY-10 cells): 2.93 nM | GI50 (WT EGFR cell line A-431): 38.3 nM | GI50 [5]: 5.4 nM | IC50 [6]: 27.9 nM | hepatocyte CLint at 1 µM [7]: 13.9 µL/min/1e6 cells | IC50 (EGFR L858R&T790M): 1.8 nM | IC50 (WT EGFR): 596 nM

[2H]C([2H])([2H])N(CCN(C)c1cc(OC)c(Nc2ncnc(Nc3cc(F)c(Cl)cc3C(C)(C)O)n2)cc1NC(=O)C=C)C([2H])([2H])[2H] [Compound 37, N-(2-((2-(bis(methyl-d3)amino)ethyl)(methyl)amino)-5-((4-((4-chloro-5-fluoro-2-(2-hydroxypropan-2-yl)phenyl)amino)-1,3,5-triazin-2-yl)amino)-4-methoxyphenyl) acrylamide]
GI50 (Ba/F3 EGFR NPH ins cells): 22.9 nM | GI50 (TMD-8 cells; Homo sapiens, TMD8, 72 h): 10 nM | GI50 (Ba/F3 EGFR ASV ins cells): 24 nM | GI50 (DB cells): 2980 nM | IC50 [1]: 3.3 nM | hepatocyte CLint at 1 µM [2]: 11.8 µL/min/1e6 cells | GI50 [3]: 22.3 nM | IC50 [4]: 8.1 nM | GI50 (Ri-1 cells; Ri-1, 72 h): 34.6 nM | GI50 (OCI-LY-10 cells; Homo sapiens, OCI-Ly10, 72 h): 14.6 nM | GI50 (WT EGFR cell line A-431): 10.3 nM | GI50 [5]: 1.5 nM | IC50 [6]: 8.5 nM | hepatocyte CLint at 1 µM [7]: 67.7 µL/min/1e6 cells | IC50 (EGFR L858R&T790M): 0.5 nM | IC50 (WT EGFR): 9.5 nM

C=CC(=O)Nc1cc(Nc2ncnc(Nc3cc(Cl)c(F)cc3C(C)(C)O)n2)c(OC)cc1N(C)CCN(C)C [Compound 11, N-(5-(4-(5-chloro-4-fluoro-2-(2-hydroxypropan-2-yl)phenylamino)-1,3,5-triazin-2-ylamino)-2-((2-(dimethylamino)ethyl)(methyl)amino)-4-methoxyphenyl)acrylamide]
GI50 (Ba/F3 EGFR NPH ins cells): 21.6 nM | GI50 (TMD-8 cells; Homo sapiens, TMD8, 72 h): 10.9 nM | GI50 (Ba/F3 EGFR ASV ins cells): 25.2 nM | GI50 (DB cells): 2800 nM | IC50 [1]: 3 nM | hepatocyte CLint at 1 µM [2]: 7.12 µL/min/1e6 cells | GI50 [3]: 20.7 nM | IC50 [4]: 6.9 nM | GI50 (Ri-1 cells; Ri-1, 72 h): 26 nM | GI50 (OCI-LY-10 cells; Homo sapiens, OCI-Ly10, 72 h): 2.8 nM | GI50 (WT EGFR cell line A-431): 13 nM | GI50 [5]: 7.7 nM | IC50 [6]: 9.7 nM | hepatocyte CLint at 1 µM [7]: 161 µL/min/1e6 cells | IC50 (EGFR L858R&T790M): 0.3 nM | IC50 (WT EGFR): 7.6 nM

C=CC(=O)Nc1cc(Nc2nccc(Nc3cc(Cl)c(Cl)cc3C(C)(C)O)n2)c(OC)cc1N1CC[C@@H](N(C)C)C1 [Compound 68, (R)-N-(5-(4-(4,5-dichloro-2-(2-hydroxypropan-2-yl)phenylamino)pyrimidin-2-ylamino)-2-(3-(dimethylamino)pyrrolidin-1-yl)-4-methoxyphenyl)acrylamide]
GI50 (Ba/F3 EGFR NPH ins cells): 33 nM | GI50 (TMD-8 cells; Homo sapiens, TMD8, 72 h): 3.6 nM | GI50 (Ba/F3 EGFR ASV ins cells): 46.1 nM | GI50 (DB cells): 2510 nM | IC50 [1]: 15.3 nM | hepatocyte CLint at 1 µM [2]: 3.89 µL/min/1e6 cells | GI50 [3]: 96.7 nM | IC50 [4]: 27 nM | GI50 (Ri-1 cells; Ri-1, 72 h): 13.6 nM | GI50 (OCI-LY-10 cells; Homo sapiens, OCI-Ly10, 72 h): 11.4 nM | GI50 (WT EGFR cell line A-431): 20.8 nM | GI50 [5]: 2.8 nM | IC50 [6]: 31.5 nM | hepatocyte CLint at 1 µM [7]: 17.5 µL/min/1e6 cells | IC50 (EGFR L858R&T790M): 1.7 nM | IC50 (WT EGFR): 136 nM

C=CC(=O)Nc1cc(Nc2ncnc(Nc3cc(Cl)c(F)cc3C(C)(O)CC)n2)c(OC)cc1N1CC[C@@H](N(C)C)C1 (single isomer, unassigned) [Compound 69, N-(5-(4-(5-chloro-4-fluoro-2-((R)-2-hydroxybutan-2-yl)phenylamino)-1,3,5-triazin-2-ylamino)-2-((R)-3-(dimethylamino)pyrrolidin-1-yl)-4-methoxyphenyl)acrylamide or N-(5-(4-(5-chloro-4-fluoro-2-((S)-2-hydroxybutan-2-yl)phenylamino)-1,3,5-triazin-2-ylamino)-2-((R)-3-(dimethylamino)pyrrolidin-1-yl)-4-methoxyphenyl)acrylamide]
GI50 (Ba/F3 EGFR NPH ins cells): 58.1 nM | GI50 (TMD-8 cells; Homo sapiens, TMD8, 72 h): 10.1 nM | GI50 (Ba/F3 EGFR ASV ins cells): 70.1 nM | GI50 (DB cells): > 3000 nM | IC50 [1]: 33.1 nM | hepatocyte CLint at 1 µM [2]: 4.12 µL/min/1e6 cells | GI50 [3]: 89.1 nM | IC50 [4]: 20.2 nM | GI50 (Ri-1 cells): 13.9 nM | GI50 (OCI-LY-10 cells): 74.5 nM | GI50 (WT EGFR cell line A-431): 12.2 nM | GI50 [5]: 5.5 nM | IC50 [6]: 46.3 nM | hepatocyte CLint at 1 µM [7]: 10.7 µL/min/1e6 cells | IC50 (EGFR L858R&T790M): 1.2 nM | IC50 (WT EGFR): 56.2 nM

C=CC(=O)Nc1cc(Nc2ncnc(Nc3cc(Cl)c(F)cc3C(C)(C)O)n2)c(OC)cc1N1CC[C@@H](NC)C1 [Compound 73, (R)-N-(5-(4-(5-chloro-4-fluoro-2-(2-hydroxypropan-2-yl)phenylamino)-1,3,5-triazin-2-ylamino)-4-methoxy-2-(3-(methylamino)pyrrolidin-1-yl)phenyl) acrylamide]
GI50 (Ba/F3 EGFR NPH ins cells): 43.2 nM | GI50 (TMD-8 cells; Homo sapiens, TMD8, 72 h): 3.75 nM | GI50 (Ba/F3 EGFR ASV ins cells): 27.4 nM | GI50 (DB cells): > 3000 nM | IC50 [1]: 12.2 nM | hepatocyte CLint at 1 µM [2]: 1.1 µL/min/1e6 cells | GI50 [3]: 26 nM | IC50 [4]: 8.6 nM | GI50 (Ri-1 cells; Ri-1, 72 h): 151 nM | GI50 (OCI-LY-10 cells; Homo sapiens, OCI-Ly10, 72 h): 16.3 nM | GI50 (WT EGFR cell line A-431): 8 nM | GI50 [5]: 3.3 nM | IC50 [6]: 22.6 nM | hepatocyte CLint at 1 µM [7]: 6.15 µL/min/1e6 cells | IC50 (EGFR L858R&T790M): 0.7 nM | IC50 (WT EGFR): 27.8 nM
